Consider eight compounds from patent US10596291B2, “Effective anti-bacteria and anti-viral air treatment device” (KONINKLIJKE PHILIPS N.V., priority 2014, dated 2020).

Read-outs that look alike come from different tables or passages of the source.

This data set is described as follows: Particle generation and ozone consumption by type of terpene in 26.5 m^3 test chamber. The class given is physicochemical. The protocol:
Some further measurements were done with setups as describe above. Data in relation to particle generation and ozone consumption as function of type of terpene were determined. […] It is clear that e.g. eucalyptol and thymol is most desired amongst these four options.

[1] abbreviates: terpene approx. 1 mg/m^3, 26.5 m^3 test chamber, initial ozone 100 ppb.
Setting [2] is: terpene concentration 1 mg/m^3, 26.5 m^3 test chamber, initial ozone 100 ppb.

With `C=C(C)[C@H]1CC=C(C)CC1` [Limonene], the Particle yield under setting [1] was 94003.4 10^6/mol. Also, the “average O3 consumption” value under setting [2] worked out at 31%.
For `C=CCc1ccc(O)c(OC)c1` [Eugenol] the same measures were 18742.9 10^6/mol and 15%.
As for `CC(C)=CCC/C(C)=C/CO` [Geraniol], the Particle yield under setting [1] was 57608.1 10^6/mol. Besides, the “average O3 consumption” value under setting [2] stood at 54%.
In the same order, the values of `Cc1ccc(C(C)C)c(O)c1` [Thymol] are 498.2 10^6/mol and 2%.
On to `CC12CCC(CC1)C(C)(C)O2` [Eucalyptol, Eucalyptol (1,8-cineol)], for which, under setting [1], the Particle yield was 779.9 10^6/mol. The “average O3 consumption” value under setting [2] is 2%.
For `C=CC(C)(O)CCC=C(C)C` (stereo not shown) [Linalool], the Particle yield under setting [1] was 76911.2 10^6/mol. Moreover, the “average O3 consumption” value under setting [2] is listed as 44%.
As for `Cc1ccc(C(C)C)cc1O` [Carvacrol], the Particle yield was 851.8 10^6/mol and the “average O3 consumption” value was determined as 0%.
In the case of y-terpinene, the Particle yield is given as 112499.9 10^6/mol and the “average O3 consumption” value is given as 19%.
